Assays:
wild-type rice = experiment: Resistance to herbicide Bispyribac-sodium, spray test, wild-type rice; type: in vivo, Nipponbare rice; settings: spray 100 μM, 36 days after spraying
Procedure: (§1) The wild-type rice, and the T0 site-specifically modified rice of the Cas9-arm donor group with successful homologous recombination at the codons of both the 548th and 627th amino acids of ALS as obtained in step I were sprayed with Bispyribac-sodium in a concentration of 100 μM, and 30-50 days thereafter, the growth states of the plants were observed.

[1] = tested on: T0 site-specifically modified rice of the Cas9-arm donor group (ALS W548L, S627I); experiment: Resistance to herbicide Bispyribac-sodium, spray test, ALS site-specifically modified rice; type: in vivo, Nipponbare rice; settings: homologous recombinant rice, ALS W548L and S627I; spray 100 μM; 36 days after spraying
Procedure: as §1

COc1cc(OC)nc(Oc2cccc(Oc3nc(OC)cc(OC)n3)c2C(=O)O)n1 [Bispyribac-sodium]
growth state of the plants after spraying (wild-type rice): withered | growth state of the plants after spraying [1]: normal growth
